According to the supplement of paper PMC11208160:

Assay: recombinant barcode read abundance after kanamycin selection (control-corrected) (log10(CPM+1)); higher = more efficient recombination; sequences stand for … in AGTGCAGAGAAAATCGGCCAGTTTTCTCTGCCTGCAGTCCGCATGCCGT…AGATTTATGCAGCGGACTGCCTTTCTCCCAAAGTGATAAACCGGACAGTATCATGGACCGGTTTTCCCGGTAATCCGTATTTGCAAGGTTGGTTTCACT; site = the 11-nt target
Procedure, shortened: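 This pooled E. coli screen matched targets with IS621 bridge RNA target-binding loops. Plating was done in duplicate on chloramphenicol/ampicillin LB agar as a control and on chloramphenicol/ampicillin/kanamycin plus 0.1 mM IPTG. Recombination efficiency reflects barcode counts at recombinant junctions as counts per million, averaged and control-corrected. The figures are log10(CPM+1).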
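Further: IS621 recombinase and bridge RNA in Escherichia coli cells.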

| Sequence | recombinant barcode read abundance (log10) |
| --- | --- |
| GCGGCGACTTGGGTTCTAACCTGTTGCCT (site GCCGCGACTAG) | 0.162 |
| GCGGCGACTTGGGTTCTAACCTGTTGCCT (site GCGGCGACTAG) | 0.891 |
| GCGGCGACTTGGGTTCTAACCTGTTGCCT (site GCTGCGACTAG) | 0.0436 |
| GCGGGATCTTGGGTTCTAACCTGTTGCCT (site ACGGGATCTAG) | 0.765 |
| GCGGGATCTTGGGTTCTAACCTGTTGCCT (site CCGGGATCTAG) | 0.258 |
| GCGGGATCTTGGGTTCTAACCTGTTGCCT (site GCGGGATCTAG) | 1.06 |
| GCGGGATCTTGGGTTCTAACCTGTTGCCT (site TCGGGATCTAG) | 0.174 |
| GCGGGGTCTTGGGTTCTAACCTGTTGCTT (site GCAGGGTCTAA) | 2.65 |
| GCGGGGTCTTGGGTTCTAACCTGTTGCTT (site GCCGGGTCTAA) | 0.124 |
| GCGGGGTCTTGGGTTCTAACCTGTTGCTT (site GCGGGGTCTAA) | 2.2 |
| GCGGGGTCTTGGGTTCTAACCTGTTGCTT (site GCTGGGTCTAA) | 0.783 |
| GCGGGTCCTTGGGTTCTAACCTGTTGCCT (site GCAGGTCCTAG) | 2.24 |
| GCGGGTCCTTGGGTTCTAACCTGTTGCCT (site GCCGGTCCTAG) | 0.213 |
| GCGGGTCCTTGGGTTCTAACCTGTTGCCT (site GCGGGTCCTAG) | 2.15 |
| GCGGGTCCTTGGGTTCTAACCTGTTGCCT (site GCTGGTCCTAG) | 0.532 |
| GCGTCACCTTGGGTTCTAACCTGTTGCCT (site ACGTCACCTAG) | 0.0445 |
| GCGTCACCTTGGGTTCTAACCTGTTGCCT (site CCGTCACCTAG) | 0.0376 |
| GCGTCACCTTGGGTTCTAACCTGTTGCCT (site GCGTCACCTAG) | 0.394 |
| GCGTCACCTTGGGTTCTAACCTGTTGCCT (site TCGTCACCTAG) | 0.382 |
| GCGTGAGCTTGGGTTCTAACCTGTTGCCT (site GCATGAGCTAG) | 1.07 |
| GCGTGAGCTTGGGTTCTAACCTGTTGCCT (site GCCTGAGCTAG) | 0.151 |
| GCGTGAGCTTGGGTTCTAACCTGTTGCCT (site GCGTGAGCTAG) | 0.676 |

| Sequence | recombinant barcode read abundance (log10) |
| --- | --- |
| GCGTGAGCTTGGGTTCTAACCTGTTGCCT (site GCTTGAGCTAG) | 0.0594 |
| GCGTGTCCTTGGGTTCTAACCTGTTGCCA (site CCGTGTCCTCG) | 0.0431 |
| GCGTGTCCTTGGGTTCTAACCTGTTGCCA (site GCGTGTCCTTG) | 0.335 |
| GCGTTGCCTTGGGTTCTAACCTGTTGCCT (site GAGTTGCCTAG) | 0.073 |
| GCGTTGCCTTGGGTTCTAACCTGTTGCCT (site GCGTTGCCTAG) | 0.213 |
| GCGTTGCCTTGGGTTCTAACCTGTTGCCT (site GGGTTGCCTAG) | 0.0557 |
| GCGTTGCCTTGGGTTCTAACCTGTTGCCT (site GTGTTGCCTAG) | 0.0893 |
| GCTAGTCCTTGGGTTCTAACCTGTTGCTG (site GCTAGTCCTAC) | 0.537 |
| GCTAGTCCTTGGGTTCTAACCTGTTGCTG (site GCTAGTCCTCA) | 0.83 |
| GCTCAGGCTTGGGTTCTAACCTGTTGCCT (site GCTCAGACTAG) | 0.142 |
| GCTCAGGCTTGGGTTCTAACCTGTTGCCT (site GCTCAGCCTAG) | 0.114 |
| GCTCAGGCTTGGGTTCTAACCTGTTGCCT (site GCTCAGGCTAG) | 0.216 |
| GCTCAGGCTTGGGTTCTAACCTGTTGCCT (site GCTCAGTCTAG) | 0.202 |
| GCTCGTCCTTGGGTTCTAACCTGTTGCAT (site GCTCGTCCTAT) | 1.03 |
| GCTCGTCCTTGGGTTCTAACCTGTTGCAT (site GCTGGACCTAT) | 0.0399 |
| GCTCTCCCTTGGGTTCTAACCTGTTGCCT (site GCACTCCCTAG) | 0.0891 |
| GCTCTCCCTTGGGTTCTAACCTGTTGCCT (site GCCCTCCCTAG) | 0.388 |
| GCTCTCCCTTGGGTTCTAACCTGTTGCCT (site GCGCTCCCTAG) | 0.253 |
| GCTCTCCCTTGGGTTCTAACCTGTTGCCT (site GCTCTCCCTAG) | 0.305 |
| GCTGGACCTTGGGTTCTAACCTGTTGCCT (site ACTGGACCTAA) | 0.179 |
| GCTGGACCTTGGGTTCTAACCTGTTGCCT (site GCTGGACCTAG) | 2.15 |
| GCTTCACCTTGGGTTCTAACCTGTTGCCT (site GCTTCACCTAG) | 0.853 |

| Sequence | recombinant barcode read abundance (log10) |
| --- | --- |
| GCTTCACCTTGGGTTCTAACCTGTTGCCT (site GCTTTACCTAA) | 0.103 |
| GCTTGGACTTGGGTTCTAACCTGTTGCAT (site GCTTGGACTAT) | 1.29 |
| GCTTGGACTTGGGTTCTAACCTGTTGCAT (site GTTTGGACTCT) | 0.0332 |
| GCTTTACCTTGGGTTCTAACCTGTTGCTT (site GCTTCACCTAG) | 0.132 |
| GCTTTACCTTGGGTTCTAACCTGTTGCTT (site GCTTTACCTAA) | 0.368 |
| GCTTTGACTTGGGTTCTAACCTGTTGCCT (site GCTTGGACTAG) | 0.0213 |
| GCTTTGACTTGGGTTCTAACCTGTTGCCT (site GCTTTGACTAG) | 0.788 |
| GGAAAGACTTGGGTTCTAACCTGTTGCAC (site GGAAAGACTGT) | 2.02 |
| GGAAAGACTTGGGTTCTAACCTGTTGCAC (site TACCGCCCTAC) | 0.128 |
| GGAACCTCTTGGGTTCTAACCTGTTGCTT (site GGAACCTCTAA) | 0.697 |
| GGAACCTCTTGGGTTCTAACCTGTTGCTT (site GGAACGTCTAA) | 0.0112 |
| GGAAGACCTTGGGTTCTAACCTGTTGCTA (site GGAAGACCTTA) | 0.956 |
| GGAAGACCTTGGGTTCTAACCTGTTGCTA (site GGAGGACCTAA) | 0.246 |
| GGAATCCCTTGGGTTCTAACCTGTTGCCT (site GGAATACCTAG) | 0.0974 |
| GGAATCCCTTGGGTTCTAACCTGTTGCCT (site GGAATCCCTAG) | 1.64 |
| GGAATCCCTTGGGTTCTAACCTGTTGCCT (site GGAATGCCTAG) | 0.463 |
| GGAATCCCTTGGGTTCTAACCTGTTGCCT (site GGAATTCCTAG) | 0.0836 |
| GGACAGTCTTGGGTTCTAACCTGTTGCGT (site CCGGTCCCTCT) | 0.485 |
| GGACAGTCTTGGGTTCTAACCTGTTGCGT (site GGACAGTCTAC) | 2.56 |
| GGACCTCCTTGGGTTCTAACCTGTTGCCT (site GGACCTCCTAA) | 0.336 |
| GGACCTCCTTGGGTTCTAACCTGTTGCCT (site GGACCTCCTAC) | 0.251 |
| GGACCTCCTTGGGTTCTAACCTGTTGCCT (site GGACCTCCTAG) | 1.32 |

| Sequence | recombinant barcode read abundance (log10) |
| --- | --- |
| GGACCTCCTTGGGTTCTAACCTGTTGCCT (site GGACCTCCTAT) | 0.524 |
| GGACGACCTTGGGTTCTAACCTGTTGCCT (site GGACGACCTAG) | 2.26 |
| GGACGACCTTGGGTTCTAACCTGTTGCCT (site GGACGCCCTAG) | 0.102 |
| GGACGACCTTGGGTTCTAACCTGTTGCCT (site GGACGGCCTAG) | 0.412 |
| GGACGACCTTGGGTTCTAACCTGTTGCCT (site GGACGTCCTAG) | 0.163 |
| GGACGTGCTTGGGTTCTAACCTGTTGCCT (site CTCTCGTCTCC) | 0.0482 |
| GGACGTGCTTGGGTTCTAACCTGTTGCCT (site GGACGTGCTAG) | 1.92 |
| GGACTAACTTGGGTTCTAACCTGTTGCCT (site AGACTAACTAA) | 0.126 |
| GGACTAACTTGGGTTCTAACCTGTTGCCT (site GGACTAACTAG) | 1.95 |
| GGAGAGACTTGGGTTCTAACCTGTTGCAT (site ACGTGTCCTCC) | 0.149 |
| GGAGAGACTTGGGTTCTAACCTGTTGCAT (site GGAGAGACTAT) | 2.79 |
| GGAGATTCTTGGGTTCTAACCTGTTGCCT (site GGAGATTCTAG) | 2.22 |
| GGAGATTCTTGGGTTCTAACCTGTTGCCT (site GGAGTTGCTAG) | 0.0142 |
| GGAGCTCCTTGGGTTCTAACCTGTTGCCA (site CGAGCTCCTGG) | 0.082 |
| GGAGCTCCTTGGGTTCTAACCTGTTGCCA (site GGAGCTCCTTG) | 0.371 |
| GGAGGGACTTGGGTTCTAACCTGTTGCGT (site GGAGGGACTAC) | 2.97 |
| GGAGGGACTTGGGTTCTAACCTGTTGCGT (site GGTCGGACTAC) | 0.0283 |
| GGAGTCACTTGGGTTCTAACCTGTTGCGG (site GGAGTCACTCC) | 2.69 |
| GGAGTCACTTGGGTTCTAACCTGTTGCGG (site TTGACACCTAG) | 0.189 |
| GGAGTGACTTGGGTTCTAACCTGTTGCTA (site GGAGTGACTAA) | 0.183 |
